Laboratory results as given in patent EP0497314A1, “Use of azapirones in attention deficit hyperactivity disorder” (Bristol-Myers Squibb Company, priority 1991, dated 1992).
Where a name gives a salt, the structure may show the parent alone. Marks after values point to notes of the source that are not given here.

How the values were obtained:
rabbit cortex = test: Quantitative EEG, rabbit cortex, intravenous administration; assay type: in vivo, rabbits; details: for group percent change in electrical energy from pre-drug control, Δ band / mean change ± S.E. in electrical energy from pre-drug control, Δ band: Δ = 0.5-3.5 Hz; for group percent change in electrical energy from pre-drug control, α band / mean change ± S.E. in electrical energy from pre-drug control, α band: α= 7-13 Hz; for group percent change in electrical energy from pre-drug control, β band / mean change ± S.E. in electrical energy from pre-drug control, β band: β= 13-25 Hz; for group percent change in electrical energy from pre-drug control, γ band / mean change ± S.E. in electrical energy from pre-drug control, γ band: γ= 25-40 Hz; for group percent change in electrical energy from pre-drug control, θ band / mean change ± S.E. in electrical energy from pre-drug control, θ band: θ= 3.5-7.0 Hz
Procedure: At least 2 weeks were allowed for recovery before beginning experimentation.
Groups of four animals each were individually restrained and connected to an EEG amplifier and frequency analyzer. The EEG of each animal was recorded on a separate channel. The instrumentation filtered each channel of EEG analog data into five distinct frequency bands: Δ=0.5-3.5 Hz, ϑ=3.5-7.0 Hz, α=7-13 Hz, β=13-25 Hz and γ=25-40 Hz. The EEG analyzer then integrated the filtered waveforms and sent pulses to an associated computer at a rate proportional to the electrical energy of each band. Thus, one computer print-out provided a cortical EEG profile for the entire group of four rabbits.
Data from a one-hour recording period were collected in four 15-minute periods, which provided additional information concerning both onset and time of peak effect of drug activity. However, in this report only the mean activity of the four data collection periods was considered since onset of drug activity was immediate and duration of action was at least one hour for all drugs studied. Drug-induced EEG changes were determined by comparing the post-treatment print-out to the pretreatment control in the same animal and statistical analysis was performed on change from control, in counts, using multiple Student-t paired-comparison tests with p≦0.05 (Table 1). However, for clarity data are also presented as percent change from control (Figures 1 and 2).
All drugs were administered intravenously in saline solution as their respective salts and all dosage calculations were based on the free base. Recording was started immediately after injection and animals were not used more often than once per week. Initial doses were reduced geometrically until a no-effect dose was determined for each drug. However, only the "no-effect" data and the data generated from the next higher dose are presented in this report since the shape of the EEG profile is not dose-related, as opposed to the magnitude of the response which is dose-related.

[1] = system: fronto-occipital cortex of the cat; test: Quantitative EEG, fronto-occipital cat cortex, subcutaneous administration; assay type: in vivo, cats; details: for group percent change in electrical energy from pre-drug control, Δ band / mean change ± S.E. in electrical energy from pre-drug control, Δ band / group percent change in electrical energy from pre-drug control, α band / mean change ± S.E. in electrical energy from pre-drug control, α band / group percent change in electrical energy from pre-drug control, β band / mean change ± S.E. in electrical energy from pre-drug control, β band / group percent change in electrical energy from pre-drug control, γ band / mean change ± S.E. in electrical energy from pre-drug control, γ band / group percent change in electrical energy from pre-drug control, θ band / mean change ± S.E. in electrical energy from pre-drug control, θ band: fronto-occipital cat cortex; for group percent change in electrical energy from pre-drug control, Δ band / mean change ± S.E. in electrical energy from pre-drug control, Δ band: Δ = 0.5-3.5 Hz; for group percent change in electrical energy from pre-drug control, α band / mean change ± S.E. in electrical energy from pre-drug control, α band: α= 7-13 Hz; for group percent change in electrical energy from pre-drug control, β band / mean change ± S.E. in electrical energy from pre-drug control, β band: β= 13-25 Hz; for group percent change in electrical energy from pre-drug control, γ band / mean change ± S.E. in electrical energy from pre-drug control, γ band: γ= 25-40 Hz; for group percent change in electrical energy from pre-drug control, θ band / mean change ± S.E. in electrical energy from pre-drug control, θ band: θ= 3.5-7.0 Hz
From the text: This unique combination of activity may render buspirone useful in the treatment of childhood hyperkinesis which has been reported to respond to both selected phenothiazine and stimulant drugs. • (b) Adult mongrel female cats weighing 2.5-4.0 kg were implanted with EEG recording electrodes. Recording sites were as follows: fronto-occipital cortex, basal amygdala and ventral hippocampus.
Animals were individually held in canvas feline restraining bags for EEG recording. The EEG of each brain area was recorded on a separate channel. The instrumentation filtered each channel of EEG and analog data into five distinct frequency bands: Δ=0.5-3.5 Hz, ϑ=3.5-7.0 Hz, α=7-13 Hz, β=13-25 Hz and γ=25-40 Hz. The EEG analyzer then integrated the filtered waveforms and sent pulses to an associated computer at a rate proportional to the electrical energy of each band. Data collecting procedures were essentially the same as reported in Example 1. However, groups of six animals each were used and all drugs were administered subcutaneously in saline solution as their respective salts, but all dosages were calculated as the free base. Recording was started 30 minutes after injection to insure adequate drug absorption for peak activity.
Drug-induced EEG changes were determined by comparing the post-treatment data to the pre-treatment control in the same animal. Statistical analysis was performed on change from control, in instrument counts, using multiple Student-t-paired-comparison test with P≦0.05 (Table 2). However, for clarity data are also presented as percent change from control (Figures 3, 4 and 5).
The data in Table 2 are drug-induced changes resulting from the minimum and higher doses of each compound required to elicit the EEG profile characteristic of that particular drug.

[2] = rabbit cortex, 0.125 mg/kg free base i.v.
[3] = rabbit cortex, 0.25 mg/kg free base i.v.

CN(C)CCCN1c2ccccc2Sc2ccc(Cl)cc21 [Chlorpromazine HCl, chlorpromazine]
minimal effective dose (rabbit cortex; Oryctolagus cuniculus, iv, rabbit cortex EEG, dose of free base, read-out: the minimum dose required to produce the EEG profile characteristic of that particular drug): 0.25 mg/kg
relative potency by comparing minimal doses required to elicit EEG profiles (rabbit cortex; rabbit cortex EEG, i.v.): approximately twice as potent as buspirone
the no-effect dose (rabbit cortex; rabbit cortex EEG, dose of free base): 0.125† mg/kg, i.v.
EEG profile (rabbit cortex; rabbit cortex, i.v.): completely different from that produced by stimulant drugs
group percent change in electrical energy from pre-drug control, Δ band (rabbit cortex; [2]): +15%
mean change ± S.E. in electrical energy from pre-drug control, Δ band (rabbit cortex; [2]): +30 ± 17 instrument counts
group percent change in electrical energy from pre-drug control, Δ band (rabbit cortex; [3]): +75%
mean change ± S.E. in electrical energy from pre-drug control, Δ band (rabbit cortex; [3]): +198 ± 51 instrument counts
group percent change in electrical energy from pre-drug control, α band (rabbit cortex; [2]): +14%
mean change ± S.E. in electrical energy from pre-drug control, α band (rabbit cortex; [2]): +21 ± 19 instrument counts
group percent change in electrical energy from pre-drug control, α band (rabbit cortex; [3]): +42%
mean change ± S.E. in electrical energy from pre-drug control, α band (rabbit cortex; [3]): +65 ± 18 instrument counts
group percent change in electrical energy from pre-drug control, β band (rabbit cortex; [2]): +10%
mean change ± S.E. in electrical energy from pre-drug control, β band (rabbit cortex; [2]): +12 ± 11 instrument counts
group percent change in electrical energy from pre-drug control, β band (rabbit cortex; [3]): +30%
mean change ± S.E. in electrical energy from pre-drug control, β band (rabbit cortex; [3]): +42 ± 13 instrument counts
group percent change in electrical energy from pre-drug control, γ band (rabbit cortex; [2]): -3%
mean change ± S.E. in electrical energy from pre-drug control, γ band (rabbit cortex; [2]): -3 ± 2 instrument counts
group percent change in electrical energy from pre-drug control, γ band (rabbit cortex; [3]): +5%
mean change ± S.E. in electrical energy from pre-drug control, γ band (rabbit cortex; [3]): +4 ± 1 instrument counts
group percent change in electrical energy from pre-drug control, θ band (rabbit cortex; [2]): +13%
mean change ± S.E. in electrical energy from pre-drug control, θ band (rabbit cortex; [2]): +20 ± 17 instrument counts
group percent change in electrical energy from pre-drug control, θ band (rabbit cortex; [3]): +33%
mean change ± S.E. in electrical energy from pre-drug control, θ band (rabbit cortex; [3]): +65 ± 22 instrument counts
minimal effective dose ([1]; Felis catus, sc, fronto-occipital cat cortex EEG, dose of free base, read-out: the minimum dose required to produce the EEG profile characteristic of that particular drug): 1 mg/kg
the no-effect dose ([1]; fronto-occipital cat cortex EEG, dose of free base): 0.5† mg/kg, s.c.
group percent change in electrical energy from pre-drug control, Δ band ([1]; 0.5 mg/kg free base s.c.): +6%
mean change ± S.E. in electrical energy from pre-drug control, Δ band ([1]; 0.5 mg/kg free base s.c.): +14 ± 23 instrument counts
group percent change in electrical energy from pre-drug control, Δ band ([1]; 1.0 mg/kg free base s.c.): +25%
mean change ± S.E. in electrical energy from pre-drug control, Δ band ([1]; 1.0 mg/kg free base s.c.): +46 ± 16 instrument counts
group percent change in electrical energy from pre-drug control, Δ band ([1]; 4.0 mg/kg free base s.c.): +56%
mean change ± S.E. in electrical energy from pre-drug control, Δ band ([1]; 4.0 mg/kg free base s.c.): +83 ± 13 instrument counts
group percent change in electrical energy from pre-drug control, α band ([1]; 0.5 mg/kg free base s.c.): +19%
mean change ± S.E. in electrical energy from pre-drug control, α band ([1]; 0.5 mg/kg free base s.c.): +23 ± 14 instrument counts
group percent change in electrical energy from pre-drug control, α band ([1]; 1.0 mg/kg free base s.c.): +25%
mean change ± S.E. in electrical energy from pre-drug control, α band ([1]; 1.0 mg/kg free base s.c.): +33 ± 8 instrument counts
group percent change in electrical energy from pre-drug control, α band ([1]; 4.0 mg/kg free base s.c.): +38%
mean change ± S.E. in electrical energy from pre-drug control, α band ([1]; 4.0 mg/kg free base s.c.): +33 ± 2 instrument counts
group percent change in electrical energy from pre-drug control, β band ([1]; 0.5 mg/kg free base s.c.): +6%
mean change ± S.E. in electrical energy from pre-drug control, β band ([1]; 0.5 mg/kg free base s.c.): +6 ± 5 instrument counts
group percent change in electrical energy from pre-drug control, β band ([1]; 1.0 mg/kg free base s.c.): +9%
mean change ± S.E. in electrical energy from pre-drug control, β band ([1]; 1.0 mg/kg free base s.c.): +13 ± 6 instrument counts
group percent change in electrical energy from pre-drug control, β band ([1]; 4.0 mg/kg free base s.c.): -3%
mean change ± S.E. in electrical energy from pre-drug control, β band ([1]; 4.0 mg/kg free base s.c.): -3 ± 5 instrument counts
group percent change in electrical energy from pre-drug control, γ band ([1]; 0.5 mg/kg free base s.c.): -13%
mean change ± S.E. in electrical energy from pre-drug control, γ band ([1]; 0.5 mg/kg free base s.c.): -10 ± 4 instrument counts
group percent change in electrical energy from pre-drug control, γ band ([1]; 1.0 mg/kg free base s.c.): -10%
mean change ± S.E. in electrical energy from pre-drug control, γ band ([1]; 1.0 mg/kg free base s.c.): -10 ± 5 instrument counts
group percent change in electrical energy from pre-drug control, γ band ([1]; 4.0 mg/kg free base s.c.): -14%
mean change ± S.E. in electrical energy from pre-drug control, γ band ([1]; 4.0 mg/kg free base s.c.): -11 ± 3 instrument counts
group percent change in electrical energy from pre-drug control, θ band ([1]; 0.5 mg/kg free base s.c.): +15%
mean change ± S.E. in electrical energy from pre-drug control, θ band ([1]; 0.5 mg/kg free base s.c.): +22 ± 15 instrument counts
group percent change in electrical energy from pre-drug control, θ band ([1]; 1.0 mg/kg free base s.c.): +20%
mean change ± S.E. in electrical energy from pre-drug control, θ band ([1]; 1.0 mg/kg free base s.c.): +28 ± 10 instrument counts
group percent change in electrical energy from pre-drug control, θ band ([1]; 4.0 mg/kg free base s.c.): +53%
